This is an account of results in article PMC4624142, “Purification and characterisation of intracellular alpha-galactosidases from Acinetobacter sp” (3 Biotech, 2015).

What all share (format): biochemical, Acinetobacter sp.
Common to all, as to settings: 20 mM Tris pH 7.0, 50 °C; unit mM ml^−1 [sic]

Assay [1] deals with T1, alpha-galactosidase I (Ag-I).
T1 construct: native intracellular enzyme purified from Acinetobacter sp. isolate G1 (soil, sugarcane industry, Sangareddy, India); 65 kDa, monomer
Briefly: p-nitrophenol release at […] nm, Lineweaver-Burk.

The test system of assay [2] is T2, alpha-galactosidase II (Ag-II).
T2 construct: native intracellular enzyme purified from Acinetobacter sp. isolate G1 (soil, sugarcane industry, Sangareddy, India); 37 kDa, monomer
Briefly: p-nitrophenol release at […] nm, Lineweaver-Burk.

Assay [3] has as its system T1, alpha-galactosidase I (Ag-I). Put plainly: reducing sugar (DNS, […] nm), Lineweaver-Burk.
Assay [4] concerns T2, alpha-galactosidase II (Ag-II). Briefly: reducing sugar (DNS, […] nm), Lineweaver-Burk.

SMILES strings stand for the structures.

With `O=[N+]([O-])c1ccc(O[C@H]2O[C@H](CO)[C@H](O)[C@H](O)[C@H]2O)cc1` [ρNPGal, p-Nitrophenyl-α-D-galactopyranoside], the “Michaelis constant (K m) mM ml^-1” value in assay [1] worked out at 0.33 mM ml^−1; in assay [2], 0.68 mM ml^−1.

As to `OC[C@H]1O[C@H](OC[C@H]2O[C@H](O[C@]3(CO)O[C@H](CO)[C@@H](O)[C@@H]3O)[C@H](O)[C@@H](O)[C@@H]2O)[C@H](O)[C@@H](O)[C@H]1O` [Raffinose], the “Michaelis constant (K m) mM ml^-1” value was 3.26 mM ml^−1 in assay [3] and 0.74 mM ml^−1 in assay [4].
